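1) Cells in 96-well plates. 2) Compound, 48 h, 5 concentrations. 3) Linear interpolation between surrounding doses. 4) Unreached endpoint = highest concentration. GI50: concentration for 50% inhibition of growth. TGI denotes the concentration required for complete inhibition of growth.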
Tests used:
Experiment in all cases: inhibition of tumour cell growth, NCI panel, 48 h
[1] = test system: NCI-H23 lung
[2] = test system: NCI-H226 lung
[3] = test system: 786-0 renal
[4] = test system: K-562 leukemia
[5] = test system: HT29 colon
[6] = test system: LOX IMVI melanoma
[7] = test system: U251 CNS
[8] = test system: HOP-62 NSCLC
[9] = test system: SK-MEL-2 melanoma
[10] = test system: BT-549 breast
[11] = test system: HCT-116 colon
[12] = test system: A549 NSCLC
[13] = test system: RPMI-8226 leukemia
[14] = test system: SK-MEL-5 melanoma
[15] = test system: NCI/ADR-RES ovarian
[16] = test system: UACC-62 melanoma
[17] = test system: EKVX NSCLC
[18] = test system: COLO 205 colon
[19] = test system: RXF 393 renal
[20] = test system: SNB-75 CNS
[21] = test system: HL-60(TB) leukemia
[22] = test system: SK-MEL-28 melanoma
[23] = test system: DU-145 prostate
[24] = test system: A498 renal
[25] = test system: ACHN renal
[26] = test system: HOP-92 NSCLC
[27] = test system: NCI-H522 lung
[28] = test system: T-47D breast
[29] = test system: NCI-H460 lung
[30] = test system: UACC-257 melanoma
[31] = test system: KM12 colon
[32] = test system: PC-3 prostate
[33] = test system: CAKI-1 renal
[34] = test system: SF-539 CNS
[35] = test system: HCC-2998 colon
[36] = test system: MOLT-4 leukemia
[37] = test system: CCRF-CEM leukemia
[38] = test system: HCT-15 colon
[39] = test system: SF-295 CNS
[40] = test system: MDA-MB-435
[41] = test system: SR leukemia
[42] = test system: MCF7 breast
[43] = test system: MDA-MB-231 breast
[44] = test system: SW-620 colon
[45] = test system: M14 melanoma
[46] = test system: OVCAR-5 ovarian
[47] = test system: TK-10 renal
[48] = test system: HS 578T breast
[49] = test system: SNB-19 CNS
[50] = test system: SF-268 CNS
[51] = test system: IGROV1 ovarian
[52] = test system: OVCAR-3 ovarian
[53] = test system: OVCAR-4 ovarian
[54] = test system: SK-OV-3 ovarian
[55] = test system: SN12C renal
[56] = test system: UO-31 renal

Structure (SMILES): CN(C)CCOc1nc2c3cccnc3cc(-c3cccc(Cl)c3)c2c2ncccc12
- GI50 [1]: 1.51 µM
- TGI [1]: 3.34 µM
- GI50 [2]: 6.09 µM
- TGI [2]: 24.6 µM
- GI50 [3]: 1.45 µM
- TGI [3]: 2.84 µM
- GI50 [4]: 1.13 µM
- TGI [4]: 2.74 µM
- GI50 [5]: 1.01 µM
- TGI [5]: 2.27 µM
- GI50 [6]: 0.968 µM
- TGI [6]: 4.5 µM
- GI50 [7]: 1.56 µM
- TGI [7]: 3.03 µM
- GI50 [8]: 1.43 µM
- TGI [8]: 3.26 µM
- GI50 [9]: 1.9 µM
- TGI [9]: 3.79 µM
- GI50 [10]: 6.11 µM
- TGI [10]: 19.9 µM
- GI50 [11]: 1.06 µM
- TGI [11]: 2.32 µM
- GI50 [12]: 1.39 µM
- TGI [12]: 2.98 µM
- GI50 [13]: 2.34 µM
- TGI [13]: 6.24 µM
- GI50 [14]: 1.78 µM
- TGI [14]: 3.2 µM
- GI50 [15]: 1.42 µM
- TGI [15]: 2.82 µM
- GI50 [16]: 2.15 µM
- TGI [16]: 4.91 µM
- GI50 [17]: 1.7 µM
- TGI [17]: 4.62 µM
- GI50 [18]: 1.23 µM
- TGI [18]: 2.74 µM
- GI50 [19]: 1.39 µM
- TGI [19]: 2.8 µM
- GI50 [20]: 1.23 µM
- TGI [20]: 7.78 µM
- GI50 [21]: 2.08 µM
- TGI [21]: 4.5 µM
- GI50 [22]: 1.65 µM
- TGI [22]: 3.07 µM
- GI50 [23]: 1.84 µM
- TGI [23]: 4.26 µM
- GI50 [24]: 2.6 µM
- TGI [24]: 10.8 µM
- GI50 [25]: 0.698 µM
- TGI [25]: 2.45 µM
- GI50 [26]: 2.04 µM
- TGI [26]: 8.42 µM
- GI50 [27]: 1.47 µM
- TGI [27]: 3.06 µM
- GI50 [28]: 2.16 µM
- TGI [28]: 6.39 µM
- GI50 [29]: 0.836 µM
- TGI [29]: 2.24 µM
- GI50 [30]: 1.89 µM
- TGI [30]: 3.6 µM
- GI50 [31]: 1.39 µM
- TGI [31]: 3.03 µM
- GI50 [32]: 2.17 µM
- TGI [32]: 5.95 µM
- GI50 [33]: 1.1 µM
- TGI [33]: 2.92 µM
- GI50 [34]: 1.65 µM
- TGI [34]: 3.08 µM
- GI50 [35]: 1.43 µM
- TGI [35]: 2.93 µM
- GI50 [36]: 0.488 µM
- TGI [36]: 2.41 µM
- GI50 [37]: 1.26 µM
- TGI [37]: 6.73 µM
- GI50 [38]: 1.05 µM
- TGI [38]: 2.7 µM
- GI50 [39]: 1.13 µM
- TGI [39]: 2.5 µM
- GI50 [40]: 1.5 µM
- TGI [40]: 2.93 µM
- GI50 [41]: 0.371 µM
- TGI [41]: 2.15 µM
- GI50 [42]: 1.28 µM
- TGI [42]: 2.68 µM
- GI50 [43]: 1.5 µM
- TGI [43]: 3.53 µM
- GI50 [44]: 0.684 µM
- TGI [44]: 2.19 µM
- GI50 [45]: 1.76 µM
- TGI [45]: 3.48 µM
- GI50 [46]: 1.5 µM
- TGI [46]: 4.02 µM
- GI50 [47]: 1.52 µM
- TGI [47]: 4.04 µM
- GI50 [48]: 1.97 µM
- TGI [48]: 5.06 µM
- GI50 [49]: 1.6 µM
- TGI [49]: 4.32 µM
- GI50 [50]: 1.17 µM
- TGI [50]: 4.37 µM
- GI50 [51]: 0.905 µM
- TGI [51]: 3.2 µM
- GI50 [52]: 1.52 µM
- TGI [52]: 4.19 µM
- GI50 [53]: 1.3 µM
- TGI [53]: 3.19 µM
- GI50 [54]: 5.05 µM
- TGI [54]: 18.4 µM
- GI50 [55]: 1.51 µM
- TGI [55]: 7.03 µM
- GI50 [56]: 1.09 µM
- TGI [56]: 2.73 µM

— PubChem BioAssay (NCI)
